Data taken from patent US12403166B2, “Labisia pumila extract composition and its pharmaceutical formulation” (MEDIKA NATURA SDN. BHD., priority 2021, dated 2025).

Columns and labels:
[1] = tested on: glutathione peroxidase (GPx); assay: Glutathione peroxidase (GPx) in DIO rats (anti-oxidant); type: in vivo, rat; settings: 30 mg/kg, P≤0.01
[2] = tested on: glutathione S-transferase (GST); settings: DIO rats, 30 mg/kg, P≤0.05

Compound: CCCCCCCCCCC[C@@H](C[C@@H]1OC(=O)[C@H]1CCCCCC)OC(=O)[C@H](CC(C)C)NC=O [Orlistat]
- increase in GPx as compared to DIO control group [1]: 40.9%
- increase in GST as compared to DIO control group [2]: 10.4%
